According to patent US4994485A, “Thio compounds having fungicidal activity” (Duphar International Research B.V., priority 1986, dated 1991):

Tests used:
Pythium splendens = assay: In vitro test on activity against Pythium splendens; type: cell-based; conditions: Globisporangium splendens, read-out: growth inhibition of the fungus
Pythium spp. = assay: Protection of seedlings against plant-pathogenic soil fungus by seed treatment (beet); type: in vivo; conditions: after 3 weeks, 18°-22° C., untreated 72
Procedure: Test with respect to the protection of seedlings against a plant-pathogenicsoil fungus, namely Pythium spp., by means of a seed treatment.
The compounds to be tested are processed to compositions by pulverising them and then mixing them intimately with kaolin in the desired concentration (see Table B). Beet seed is treated with these compositions in a quantity of 6 g of composition per kg of seed and then sown in trays with soil which was seriously infested with Pythium spp. After 3 weeks in a glass-house at 18°-22° C. and a relative humidity of 70-100%, the percentage of non-emerged and diseased seedlings (damping-off) is determined. The results are recorded in Table B. For comparison, the known substance 2-methylsulphinyl-4-methyl-5-nitrothiazole(a) is also tested.

Fusarium culmorum [1] = assay: In vitro test on activity against Fusarium culmorum; type: cell-based; conditions: read-out: growth inhibition of the fungus
Rhizoctonia solani = assay: In vitro test on activity against Rhizoctonia solani; type: cell-based; conditions: read-out: growth inhibition of the fungus
Procedure: The compound to be tested is processed in a culture medium consisting of 1% by weight of glucose, 0.2% by weight of a yeast extract (marmite), 0.5% by weight of a protein (pepton), 2.5% by weight of agar-agar, and 95.8% by weight of water, […] The petri dishes are inoculated with the plant-pathogenic fungus Pyrenophora graminea and then kept at a temperature of 20° C. After 48 hours the growth-inhibiting activity of the compounds is determined visually. For comparison, the known substance (b) (see EXAMPLE XV) is also tested.
Compounds according to the invention are tested on Rhizoctonia solani in the same manner as described in EXAMPLE XIX.

Pyrenophora graminea = assay: In vitro test on activity against Pyrenophora graminea; type: cell-based; conditions: 48 hours, 20° C., read-out: % growth inhibition of the fungus
Procedure: In vitro test on activity against Pyrenophora graminea.
(§1) The compound to be tested is processed in a culture medium consisting of 1% by weight of glucose, 0.2% by weight of a yeast extract (marmite), 0.5% by weight of a protein (pepton), 2.5% by weight of agar-agar, and 95.8% by weight of water, in petri dishes in concentrations of 3 and 10 ppm. The petri dishes are inoculated with the plant-pathogenic fungus Pyrenophora graminea and then kept at a temperature of 20° C. After 48 hours the growth-inhibiting activity of the compounds is determined visually. For comparison, the known substance (b) (see EXAMPLE XV) is also tested.

Leptosphaeria nodorum = assay: In vitro test on activity against Leptosphaeria nodorum; type: cell-based; conditions: Parastagonospora nodorum, read-out: growth inhibition of the fungus
Procedure: as §1
Compounds according to the invention are tested on i Leptosphaeria nodorum in the same manner as described in EXAMPLE XIX.

Fusarium culmorum [2] = assay: Protection of seedlings against plant pathogenic seed fungus by seed treatment (wheat); type: in vivo; conditions: wheat seed infested with Fusarium culmorum; 3 g composition (10% by weight in kaolin) per kg of seed; after three weeks, 8°-12° C.; untreated 67
Procedure: Test with respect to the protection of seedlings against a plant pathogenic seed fungus, namely Fusarium culmorum, by means of a seed treatment.
Wheat seed, infested with Fusarium culmorum, is treated with the substance to be tested in the form of a composi tion in a quantity of 3 g per kg of seed. The composition is obtained by pulverising the substance to be tested and then intimately mixing with kaolin in a concentration of 10% by weight. The seed thus treated is sown in a tray containing soil which is placed in a Wisconsin tank with a bottom temperature of 8°-12° C. After three weeks the number of emerged and healthy plants is determined. The emergence of healthy plants from untreated seed serves as control. For comparison, the known substances 2-methylsulphinyl-4-methyl-5-nitrothiazole (a), 2-methylsulphinyl-3-nitrothiophene (b) and 2-ethylsulphinyl-3-nitro-5-acetylthiophene (c) mentioned hereinbefore are also tested. In the examples, the numbers of the compounds refer to the specification.

[3] = Acute oral toxicity (lethal dose) in male mice; conditions: mouse, in vivo, acute mortality, mg/kg of body weight
Procedure: Toxicity with respect to warm-blooded living beings.
The LD50 is determined by orally administering the substance to be tested to male mice and determining the acute mortality. In Table C below, the LD50 is recorded in mg/kg of body weight.
For comparison, the known compound (b) (see EXAMPLE XV) is also tested.

[4] = test system: soil-borne and seed-borne pathogenic micro-organisms; assay: Fungicidal activity in practice (general statement); conditions: in words
[5] = test system: warm-blooded living beings; assay: Toxicity with respect to warm-blooded living beings (general statement); conditions: in words
[6] = 600 mg of active substance per kg of seed
[7] = 1200 mg of active substance per kg of seed

| Structure (SMILES) | inhibition at 10 ppm (Pythium splendens) [%] | percentage damping-off (Pythium spp.; [6]) [%] | percentage damping-off (Pythium spp.; [7]) [%] | inhibition at 30 ppm (Fusarium culmorum [1]) [%] | inhibition at 30 ppm (Rhizoctonia solani) [%] | inhibition at 3 ppm (Pyrenophora graminea) [%] | inhibition at 10 ppm (Pyrenophora graminea) [%] | inhibition at 30 ppm (Leptosphaeria nodorum) [%] | Percentage of emerged, healthy plants (Fusarium culmorum [2]) [%] | LD50 [3] [mg/kg] | activity [4] | toxicity with respect to warm-blooded living beings [5] |
| --- | --- | --- | --- | --- | --- | --- | --- | --- | --- | --- | --- | --- |
| CC(=O)c1sc([S+](C)[O-])c(C#N)c1Cl (centres unmarked) [(2), 2-methylsulphinyl-3-cyano-4-chloro-5-acetylthiophene] | ≥ 95 | 7 | 6 | ≥ 75 | ≥ 75 | 64 | 79 | ≥ 85 | 87 |  |  |  |
| C[S+]([O-])c1sc(C#N)c(Cl)c1C#N (centres unmarked) [(3), 2-methylsulphinyl-3,5-dicyano-4-chlorothiophene] | ≥ 95 | 6 | 5 | ≥ 75 | ≥ 75 | 57 | 80 | ≥ 85 | 91 |  |  |  |
| C[S+]([O-])c1sc(C#N)cc1C#N (centres unmarked) [(4), 2-methylsulphinyl-3,5-dicyanothiophene] | ≥ 95 | 10 | 9 |  | ≥ 75 | 66 | 84 | ≥ 85 | 90 |  |  |  |
| CC[S+]([O-])c1sc(C#N)c(Cl)c1C#N (centres unmarked) [(7), 2-ethylsulphinyl-3,5-dicyano-4-chlorothiophene] | ≥ 95 | 17 | 17 | ≥ 75 |  | 59 | 83 | ≥ 85 | 98 | 400 |  |  |
| CC[S+]([O-])c1sc(C#N)cc1C#N (centres unmarked) [(8), 2-ethylsulphinyl-3,5-dicyanothiophene] | ≥ 95 | 16 | 12 |  |  | 49 | 72 |  | 92 | 119 |  |  |
| CC[S+]([O-])c1sc(C(C)=O)c(N)c1C#N (centres unmarked) [(10), 2-ethylsulphinyl-3-cyano-4-amino-5-acetylthiophene] | ≥ 95 | 10 | 9 |  |  |  |  | ≥ 85 | 98 | 141 |  |  |
| CC[S+]([O-])c1sc(C#N)c(OC)c1C#N (centres unmarked) [(13), 2-ethylsulphinyl-3,5-dicyano-4-methoxythiophene] | ≥ 95 | 3 | 1 | ≥ 75 |  |  |  | ≥ 85 | 90 | 130 |  |  |
| CC[S+]([O-])c1sc2cc([N+](=O)[O-])ccc2c1C#N (centres unmarked) [(27), 2-ethylsulphinyl-3-cyano-6-nitro-benzothiophene] | ≥ 95 | 4 | 2 | ≥ 75 | ≥ 75 |  |  | ≥ 85 | 96 |  |  |  |
| CCC[S+]([O-])c1sc(C#N)c(Cl)c1C#N (centres unmarked) [(33), 2-n-propylsulphinyl-3,5-dicyano-4-chlorothiophene] | ≥ 95 |  |  | ≥ 75 | ≥ 75 |  | 83 | ≥ 85 |  | 246 |  |  |
| CCCC[S+]([O-])c1sc(C(C)=O)c(Cl)c1C#N (centres unmarked) [(39), 2-n-butylsulphinyl 3-cyano-4-chloro-5-acetylthiophene] | ≥ 95 |  |  | ≥ 75 | ≥ 75 |  | 81 |  |  |  |  |  |
| C[S+]([O-])c1sc(C(=O)c2ccc(Cl)cc2)c(Cl)c1C#N (centres unmarked) [(42), 2-methylsulphinyl-3-cyano-4-chloro-5-(4-chlorobenzoyl) thiophene] | ≥ 95 |  |  | ≥ 75 | ≥ 75 |  |  | ≥ 85 |  |  |  |  |
| CCCC[S+]([O-])c1sc(C#N)c(Cl)c1C#N (centres unmarked) [(43), 2-n-butylsulphinyl-3,5-dicyano-4-chlorothiophene] | ≥ 95 |  |  | ≥ 75 | ≥ 75 |  | 72 | ≥ 85 |  | 246 |  |  |
| C[S+]([O-])c1sc(C(=O)c2ccc(Cl)cc2)cc1C#N (centres unmarked) [(52), 2-methylsulphinyl-3-cyano-5-(4-chlorobenzoyl)thiophene] | ≥ 95 |  |  | ≥ 75 | ≥ 75 |  | 71 |  |  |  |  |  |
| C[S+]([O-])c1sc(C#N)c(Sc2ccccc2)c1C#N (centres unmarked) [(85), 2-methylsulphinyl-3,5-dicyano-4-phenylthio-thiophene] | ≥ 95 |  |  | ≥ 75 | ≥ 75 |  | 73 | ≥ 85 |  |  |  |  |
| Cc1nc([S+](C)[O-])sc1[N+](=O)[O-] (centres unmarked) [(a), 2-methylsulphinyl-4-methyl-5-nitrothiazole, reference compound] |  | 57 | 45 |  |  |  |  |  | 68 |  | insufficiently active |  |
| C[S+]([O-])c1sccc1[N+](=O)[O-] (centres unmarked) [(b), 2-methylsulphinyl-3-nitrothiophene, reference compound] |  |  |  |  |  | 0 | 37 |  | 75 | 31.6 | leaves to be desired in practice | undesired toxicity |
| CC[S+]([O-])c1sc(C(C)=O)cc1[N+](=O)[O-] (centres unmarked) [(c), 2-ethylsulphinyl-3-nitro-5-acetylthiophene] |  |  |  |  |  |  |  |  | 74 |  | leaves to be desired in practice | undesired toxicity |
